Experimental data published in patent US6605611B2, “Base analogues” (Nycomed Amersham PLC, priority 1997, dated 2003).

Legend:
Assay type in all cases: biochemical
[1] = test system: exonuclease free Klenow fragment of DNA polymerase I (EFK); experiment: primer extension assay, EFK, Templates 1 and 2, Example 13; details: for substrate for the polymerase (EFK), incorporation: 20 μM total nucleotide, 37° C. for 3 minutes, Template 1 or Template 2; for substrate quality compared with the analogue with the shorter linker arm: EFK primer extension, 20 μM
Protocol: A primer extension assay was used to evaluate compounds (3.3a), (3.3b), (4.3a),(4.3b) and (8.1) as substrates for exonuclease free Klenow fragment of DNA polymerase I (EFK). The assay used a ^33P 5′ end labelled 15 mer primer hybridised to one of two 24 mer templates. The sequences of the primer and templates are:
(§1) One picomole ^33P labelled primer was hybridised to 2 picomoles of template in ×2 Klenow buffer. To this was added either 20 μM dCTP or 20 μM (3.3a) or 20 μM (3.3b) or 20 μM (4.3a) or 20 μM (4.3b) or 20 μM (8.1) or mixtures of dCTP and compound (3.3a) or (3.3b) or (4.3a) or (4.3b) or (8.1) keeping the total nucleotide concentration fixed at 20 μM. One unit EFK and 2 mU inorganic pyrophosphatase were used per reaction. Primer alone, primer plus template plus enzyme controls were also carried out. The reactions were incubated at 37° C. for 3 minutes. Reactions were then stopped by the addition of formamide/EDTA stop solution. Reaction products were separated on a 19% polyacrylamide 7M urea gel and the product fragments sized by comparison with a ^33P labelled 8 to 32 base oligonucleotide ladder after exposure to Kodak Biomax autoradiography film.

[2] = target: terminal deoxynucleotidyl transferase (Bos taurus, UniProt P06526); experiment: oligonucleotide tailing reaction with terminal deoxynucleotidyl transferase; details: 32 μM nucleotide, 25 U terminal deoxynucleotidyl transferase, 15 mer primer, 90 minutes at 37° C.
Chain of terminal deoxynucleotidyl transferase (P06526 whole entry): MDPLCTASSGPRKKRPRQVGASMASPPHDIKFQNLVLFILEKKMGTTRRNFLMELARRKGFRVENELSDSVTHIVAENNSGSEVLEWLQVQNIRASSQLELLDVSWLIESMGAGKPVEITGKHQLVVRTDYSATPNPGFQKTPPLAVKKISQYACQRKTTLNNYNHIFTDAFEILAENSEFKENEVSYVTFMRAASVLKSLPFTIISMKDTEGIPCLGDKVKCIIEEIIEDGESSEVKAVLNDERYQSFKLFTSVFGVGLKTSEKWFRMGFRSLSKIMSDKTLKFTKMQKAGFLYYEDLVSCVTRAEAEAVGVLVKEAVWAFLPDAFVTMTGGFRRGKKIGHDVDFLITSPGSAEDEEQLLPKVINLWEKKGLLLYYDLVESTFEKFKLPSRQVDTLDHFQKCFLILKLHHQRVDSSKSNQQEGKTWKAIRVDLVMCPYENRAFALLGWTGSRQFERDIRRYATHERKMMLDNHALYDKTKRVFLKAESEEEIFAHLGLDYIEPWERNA
Description: 1-(2′-deoxy-5′-triphospho-β-D-ribofuranosyl)piperidino[2,3-d]pyrimidine-2(1H)-one (1.6), 6-methylamine-3-(5-triphospho-2-deoxy-β-D-erythro-pentofuranosyl)furano[2,3-d]pyrimidin-2-one) (3.3a) and 5-FAM-(6-methylamine-3-(5-triphospho-2-deoxy-β-D-erythro-pentofuranosyl)furano[2,3-d]pyrimidin-2-one) (3.3b), 6-methyl-N-(6-amino)-caproamide-3-(5-triphospho-2-deoxy-β-D-erythro-pentofuranosyl)furano[2,3-d]pyrimidin-2-one (4.3a) and 5-FAM-(6-methyl-N-(6-amino)-caproamide-3-(5-triphospho-2-deoxy-β-D-erythro-pentofuranosyl)furano[2,3-d]pyrimidin-2-one) (4.3b), 6-methylamine-3-(5-triphospho-2-deoxy-β-D-erythro-pentofuranosyl)pyrrolo[2,3-d]pyrimidin-2-one) (8.1), 6-methyl-N-(6-amino)-caproamide-3-(5-triphospho-2-deoxy-β-D-erythro-pentofuranosyl)pyrrolo[2,3-d]pyrimidin-2-one (10.1a), and the FAM and Cy5 of (10.1a, e.g. 10.1b and 10.1c) as substrates for terminal deoxynucleotidyl transferase. In order to test the ability of compounds (1.6), (3.3a), (3.3b), (4.3a), (4.3b), (8.1), (10.1a), (10.1b) and (10.1c) to be accepted by terminal deoxynucleotidyl transferase as a substrate, an oligonucleotide tailing reaction was performed.
A 15 mer primer (sequence: 5′ TGC ATG TGC TGG AGA 3′) and 8 to 32 base oligonucleotide markers were 5′ end labelled with [γ^33P] ATP and T4 polynucleotide kinase. Reactions were boiled for 5 minutes after labelling to remove any PNK activity. Four picomoles of the labelled primer, 25 U terminal deoxynucleotidyl transferase and 32 μM dATP, dCTP, dGTP, dTTP or compounds (1.6), (3.3a), (3.3b), (4.3a), (4.3b), (8.1), (10.1a), (10.1b) and (10.1c) were incubated in 25 μl 100 mM cacodylate buffer pH7.2, 2 mM CoCl2 and 0.2 mM 2-mercaptoethanol for 90 minutes at 37° C. The reactions were stopped by the addition of formamide stop solution and the reaction products run on a 19% polyacrylamide 7M urea gel with the labelled markers. Autoradiography using Biomax film was carried out on the dry gel.

[3] = test system: exonuclease free Klenow fragment of DNA polymerase I (EFK); experiment: primer extension assay, EFK, Example 14; details: 80 μM (1.6), with or without 4 μM dNTPαS, 37° C. for 3 minutes
Protocol: A primer extension assay was used to evaluate compound (1.6) as a substrate for exonuclease free Klenow fragment of DNA polymerase I (EFK). The assay used a ^33P 5′ end labelled 15 mer primer hybridised to a 24 mer template. The sequences of the primer and template are:
One picomole ^33P labelled primer was hybridised to 2 picomoles of template in ×2 Klenow buffer. To this was added either 4 μM dNTPαS or 80 μM (1.6) or a mixture of 4 μM dNTPαS 80 μM (1.6). One unit EFK and 2 mU inorganic pyrophosphatase were used per reaction. Primer alone, primer plus template plus enzyme controls were also carried out. The reactions were incubated at 37° C. for 3 minutes. Reactions were then stopped by the addition of formamide I EDTA stop solution. Reaction products were separated on a 19% polyacrylamide 7M urea gel and the product fragments sized by comparison with a ^33P labelled 8 to 32 base oligonucleotide ladder after exposure to Kodak Biomax autoradiography film.

[4] = test system: AMV reverse transcriptase; experiment: 1st strand cDNA synthesis, incorporation monitored by 33P-dATP spike, TLC and gel
Protocol: Incorporation of compound (10.1a) into 1st strand cDNA was carried out using a balance of dCTP such that the total concentration of (10.1a) and dCTP was equivalent to each of the other three dNTP concentrations.
(10.1a) was used at three different percentages
These reactions were compared with reactions including Cy5 labelled dCTP. All reactions were monitored by carrying out the reaction in duplicate and monitoring one of the duplicates with a spike of ^33P-dATP.
1 μl ^33P-dATP-active samples only
1 μl AMV reverse transcriptase 20 U/μl
Incubate at 42° C. for 2½ hours
The cDNA reactions were monitored by TLC as follows
1 μl of sample was spotted onto PEI cellulose TLC plates and run in 1.25M Potassium phosphate buffer
Samples were then purified by Qiagen column and eluted in 50 μl of water. The active cDNA products were analysed on a 6% polyacrylamide gel
The gel was then covered in Saran wrap and exposed to phosphorscreen for 1 hour. Phosphorscreen analysis was carried out on the Molecular Dynamics Storm 860 instrument.

[5] = test system: exonuclease free Klenow fragment of DNA polymerase I (EFK); experiment: primer extension assay, EFK, Example 12; details: 20 μM total nucleotide, 37° C. for 3 minutes, 24 mer template
Protocol: A primer extension assay was used to evaluate compounds (10.1a), (10.1b) and (10.1c) as substrates for exonuclease free Klenow fragment of DNA polymerase I (EFK). The assay used a ^33P 5′ end labelled 15 mer primer hybridised to a 24 mer template. The sequences of the primer and template are:
as §1, with “μM (10.1a)” for “μM (3.3a)”, “μM (10.1b)” for “μM (3.3b)”, “μM (10.1c)” for “μM (4.3a) or 20 μM (4.3b) or 20 μM (8.1)”, “compound (10.1a)” for “compound (3.3a)”, “or compound (10.1b)” for “or (3.3b)”, “or compound (10.1c)” for “or (4.3a) or (4.3b) or (8.1)”

[6] = target: Thermus aquaticus DNA polymerase (Thermus aquaticus, UniProt P19821); experiment: incorporation into arabidopsis DNA by PCR; details: 5% to 50% (10.1a), balance dCTP, 35 cycles
Chain of Thermus aquaticus DNA polymerase (P19821 whole entry): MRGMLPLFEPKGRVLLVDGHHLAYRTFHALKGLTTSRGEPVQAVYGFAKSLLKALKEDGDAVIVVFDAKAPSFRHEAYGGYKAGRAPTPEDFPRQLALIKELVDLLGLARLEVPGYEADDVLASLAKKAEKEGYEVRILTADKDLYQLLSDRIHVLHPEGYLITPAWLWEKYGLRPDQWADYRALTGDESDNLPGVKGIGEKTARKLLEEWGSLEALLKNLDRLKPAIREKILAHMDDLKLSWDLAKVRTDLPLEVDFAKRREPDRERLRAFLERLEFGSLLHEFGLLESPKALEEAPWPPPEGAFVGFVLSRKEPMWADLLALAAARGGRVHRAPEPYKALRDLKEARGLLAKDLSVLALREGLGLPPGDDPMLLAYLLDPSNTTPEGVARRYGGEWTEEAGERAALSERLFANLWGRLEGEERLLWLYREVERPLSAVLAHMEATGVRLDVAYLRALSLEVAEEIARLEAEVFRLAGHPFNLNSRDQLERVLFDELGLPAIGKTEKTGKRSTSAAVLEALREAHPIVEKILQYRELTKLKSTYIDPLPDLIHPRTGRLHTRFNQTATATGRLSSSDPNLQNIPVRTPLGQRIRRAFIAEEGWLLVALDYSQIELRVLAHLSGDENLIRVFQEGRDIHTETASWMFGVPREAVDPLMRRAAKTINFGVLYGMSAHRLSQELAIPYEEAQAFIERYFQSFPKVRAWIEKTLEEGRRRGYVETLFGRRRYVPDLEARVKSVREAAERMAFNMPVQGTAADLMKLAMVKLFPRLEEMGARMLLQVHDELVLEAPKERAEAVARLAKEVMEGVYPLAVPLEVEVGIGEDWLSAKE
Protocol: Incorporation of (10.1a) into arabidopsis DNA by PCR was carried out as follows:
The (10.1a) was used in the PCR at various percentages with a balance of dCTP such that the total concentration of (10.1a) and dCTP was equivalent to each of the other three base dNTP's. The percentages of (10.1a) used were:
After PCR, the samples were purified by Qiagen column and analysed by 1% agarose gel.

| Molecule | substrate for the polymerase (EFK), incorporation [1] | 3′ tail length [2] | also measured |
| --- | --- | --- | --- |
| NCc1cc2cn([C@H]3C[C@H](O)[C@@H](COP(=O)(O)OP(=O)(O)OP(=O)(O)O)O3)c(=O)nc2[nH]1 [Compound 8.1] | a substrate for the polymerase being able to substitute for dCTP | – | – |
| NCCCCCC(=O)NCC=Cc1cn([C@H]2C[C@H](O)[C@@H](COP(=O)(O)OP(=O)(O)OP(=O)(O)O)O2)c(=O)nc1N [5-allylaminocaproamide dCTP, reference compound] | – | – | incorporation by the polymerase ([1]; under similar assay conditions): did not show any incorporation |
| O=C(CCCCCNC(=O)c1ccc2c(c1)C(=O)OC21c2ccc(O)cc2Oc2cc(O)ccc21)NCc1cc2cn([C@H]3C[C@H](O)[C@@H](COP(=O)(O)OP(=O)(O)OP(=O)(O)O)O3)c(=O)nc2o1 [Compound 4.3b, 5-FAM-(6-methyl-N-(6-amino)-caproamide-3-(5-triphospho-2-deoxy-β-D-erythro-pentofuranosyl)furano[2,3-d]pyrimidin-2-one)] | only incorporated in reactions using Template 2 | 9-14 bases | – |
| O=c1nc2c(cn1C1CC(O)C(COP(=O)(O)OP(=O)(O)OP(=O)(O)O)O1)CCCN2 [Compound 1.6, 1-(2′-deoxy-5′-triphospho-β-D-ribofuranosyl)piperidino[2,3-d]pyrimidine-2(1H)-one] | – | equivalent to those produced by dCTP at the same concentration | substrate for EFK, incorporation in place of dCTP [3]: a substrate for EFK and that it was efficiently incorporated in place of dCTP |
| NCCCCCC(=O)NCc1cc2cn([C@H]3C[C@H](O)[C@@H](COP(=O)(O)OP(=O)(O)OP(=O)(O)O)O3)c(=O)nc2o1 [Compound 4.3a, 6-Methyl-N-(6-amino)-caproamide-3-(5-triphospho-2-deoxy-β-D-erythro-pentofuranosyl)furano[2,3-d]pyrimidin-2-one] | a substrate for the polymerase again being able to replace dCTP | 7-9 bases | substrate quality compared with the analogue with the shorter linker arm [1]: better substrate than (3.3a) |
| NCc1cc2cn([C@H]3C[C@H](O)[C@@H](COP(=O)(O)OP(=O)(O)OP(=O)(O)O)O3)c(=O)nc2o1 [Compound 3.3a] | not a substrate for the polymerase | – | – |
| Cy5-(6-methyl-N-(6-amino)-caproamide-3-(triphospho-2-2deoxy-β-D-erythro-pentofuranosyl)pyrrolo[2,3-d]pyrimidin-2-one [Compound 10.1c] | – | greater than 30 bases | – |
| NCCCCCC(=O)NCc1cc2cn([C@H]3C[C@H](O)[C@@H](COP(=O)(O)OP(=O)(O)OP(=O)(O)O)O3)c(=O)nc2[nH]1 [Compound 10.1a, 6-methyl-N-(6-amino)-caproamide-3-(5-triphospho-2-deoxy-β-D-erythro-pentofuranosyl)pyrrolo[2,3-d]pyrimidin-2-one] | – | 7-8 bases | 33P-dATP Incorporation (TLC) ([4]; 50% (10.1a), balance dCTP): 23.2%; 33P-dATP Incorporation (TLC) ([4]; 75% (10.1a), balance dCTP): 16.5%; 33P-dATP Incorporation (TLC) ([4]; 100% (10.1a), no dCTP): 11.5%; substrate quality compared with the analogue with the shorter linker arm [1]: better substrate than (8.1); substrate for the polymerase (EFK), incorporation in place of dCTP [5]: surprisingly good substrate; formation of PCR product, agarose gel analysis [6]: resulted in the formation of PCR product |
| O=C(NCc1cc2cn([C@H]3C[C@H](O)[C@@H](COP(=O)(O)OP(=O)(O)OP(=O)(O)O)O3)c(=O)nc2o1)c1ccc2c(c1)C(=O)OC21c2ccc(O)cc2Oc2cc(O)ccc21 [Compound 3.3b, 5-Carboxyfluoresceinyl-(6-methylamine-3-(5-triphospho-2-deoxy-β-D-erythro-pentofuranosyl)furano[2,3-d]pyrimidin-2-one)] | not a substrate for the polymerase using either of the Templates | – | – |
| O=C(CCCCCNC(=O)c1ccc2c(c1)C(=O)OC21c2ccc(O)cc2Oc2cc(O)ccc21)NCc1cc2cn([C@H]3C[C@H](O)[C@@H](COP(=O)(O)OP(=O)(O)OP(=O)(O)O)O3)c(=O)nc2[nH]1 [Compound 10.1b, 5-FAM-(6-methyl-N-(6-amino)-caproamide-3-(5-triphospho-2-deoxy-β-D-erythro-pentofuranosyl)pyrrolo[2,3-d]pyrimidin-2-one)] | – | 18-24 bases | – |
